Results on 2 molecules are retold here after patent US20210246157A1, “CAMPTOTHECIN DERIVATIVES AND PREPARATION METHODS AND APPLICATIONS THEREOF” (priority 2018, published 2021).

Converted amounts (≈) assume the structure as drawn. Counter-ions that a name gives are not always drawn. Like-named read-outs stand apart in the source and are kept apart here.

Data set [1] has as its system A549. The data set is described as follows: Cytotoxicity test (MTT, 72 h). As to conditions: Homo sapiens, A549, 72 h, read-out: 50% Inhibiting Concentration value (IC50).
Method: (§1) In order to investigate the antitumor activities of the compounds, a variety of tumor cell lines for test are selected. Cells at logarithmic growth period are inoculated in a 96-well plate overnight, then drugs with a certain gradient concentrations are added, and incubation is carried out in a cell culture chamber (5% CO2, 37° C.) for 72 h.
Data set [2] deals with SKOV-3. Put plainly: Cytotoxicity test (MTT, 72 h). As to conditions: Homo sapiens, SK-OV-3, 72 h, read-out: 50% Inhibiting Concentration value (IC50).
Method: (§2) Cells at logarithmic growth period are inoculated in a 96-well plate overnight, then drugs with a certain gradient concentrations are added, and incubation is carried out in a cell culture chamber (5% CO2, 37° C.) for 72 h.
Data set [3] concerns SW-480. Put plainly: Cytotoxicity test (MTT, 72 h). The conditions noted are these: Homo sapiens, SW480, 72 h, read-out: 50% Inhibiting Concentration value (IC50).
Method: as §2
Data set [4] relates to HCT-116. Put plainly: Cytotoxicity test (MTT, 72 h). As to conditions: Homo sapiens, HCT-116, 72 h, read-out: 50% Inhibiting Concentration value (IC50).
Method: as §1
Data set [5] deals with ECA-109. Put plainly: Cytotoxicity test (MTT, 72 h). The conditions noted are these: Homo sapiens, ECa-109, 72 h, read-out: 50% Inhibiting Concentration value (IC50).
Method: as §1
The test system of data set [6] is TPC-1. Put plainly: Cytotoxicity test (MTT, 72 h). As to conditions: Homo sapiens, TPC1, 72 h, read-out: 50% Inhibiting Concentration value (IC50).
Method: as §2
Data set [7] concerns Hela. Put plainly: Cytotoxicity test (MTT, 72 h). As to conditions: Homo sapiens, read-out: 50% Inhibiting Concentration value (IC50).
Method: as §1
The test system of data set [8] is BGC-823. The data set is described as follows: Cytotoxicity test (MTT, 72 h). As to conditions: Homo sapiens, BGC-823, 72 h, read-out: 50% Inhibiting Concentration value (IC50).
Method: as §1
For data set [9], the system named is H1975. Put plainly: Cytotoxicity test (MTT, 72 h). As to conditions: Homo sapiens, NCI-H1975, 72 h, read-out: 50% Inhibiting Concentration value (IC50).
Method: as §1
A short description of data set [10]: Solubility test, equilibrium method, UV-visible spectrophotometry. The class given is physicochemical. As to conditions: for solubility: thermodynamic from solid. How it is done: The solubility test is carried out by equilibrium method. […] An appropriate amount of the compound is weighed and dissolved in 1 mL of methanol solution to prepare a control solution with a certain concentration (C0). The concentration of test solution is calculated according to the following formula: Cx=(Ax/A0)C0, wherein Cx is concentration of test solution, Ax is absorbance of test solution, C0 is concentration of control solution, and A0 is absorbance of control solution.

A short description of data set [11]: Multi-dose in vivo antitumor activity study, mouse weight (Example 20). The conditions noted are these: CPT-11 group 10 mg/kg, caudal vein once every 2 days. The arrangement: species or system mice. How it is done: The drugs are administered through the caudal veins of mice once every 2 days for a total of 7 times.
At the end of the treatment cycle, the orbital venous blood of the mice is collected for later blood routine test, the mice are killed by cervical dislocation method, and tumors are removed immediately and photographed. From day 0, the mice in each group are weighed every three days, and the weights are recorded. The weight average value of each group is calculated, and mouse weight variation curve is drawn according to statistical data. At the end of the treatment cycle, tumors are removed from anesthetized mice immediately and weighted, and the tumor weight of each group is recorded. The tumor inhibition rate (%) is calculated according to the following formula: […]

Data set [12] concerns K562. Put plainly: Cytotoxicity test (MTT, 72 h). The conditions noted are these: Homo sapiens, K562, 72 h, read-out: 50% Inhibiting Concentration value (IC50).
Method: as §1
Data set [13] relates to HT-29. The data set is described as follows: Cytotoxicity test (MTT, 72 h). As to conditions: Homo sapiens, HT-29, 72 h, read-out: 50% Inhibiting Concentration value (IC50).
Method: as §2
Data set [14] relates to PANC-1. Put plainly: Cytotoxicity test (MTT, 72 h). The conditions noted are these: Homo sapiens, PANC-1, 72 h, read-out: 50% Inhibiting Concentration value (IC50).
Method: as §2
For data set [15], the system named is 143B. The data set is described as follows: Cytotoxicity test (MTT, 72 h). The conditions noted are these: Homo sapiens, read-out: 50% Inhibiting Concentration value (IC50).
Method: as §1
The test system of data set [16] is HepG2. The data set is described as follows: Cytotoxicity test (MTT, 72 h). The conditions noted are these: Homo sapiens, HepG2, 72 h, read-out: 50% Inhibiting Concentration value (IC50).
Method: as §1
Data set [17] deals with PC3. The data set is described as follows: Cytotoxicity test (MTT, 72 h). As to conditions: Homo sapiens, PC-3, 72 h, read-out: 50% Inhibiting Concentration value (IC50).
Method: as §1
The subject of data set [18] is MDA-MB-231. The data set is described as follows: Cytotoxicity test (MTT, 72 h). The conditions noted are these: Homo sapiens, MDA-MB-231, 72 h, read-out: 50% Inhibiting Concentration value (IC50).
Method: as §1
The conditions of data set [19]: common drug solvents and water; Santi et al.; cited from earlier work.
Data set [20] deals with tumor. As to conditions: Santi et al., J Med Chem. 2014; cited from earlier work.

By solubility is commonly meant the concentration that dissolves in the medium under given conditions. For the molecule `CCc1c2c(nc3ccc(OC(=O)N4CCC(N5CCCCC5)CC4)cc13)-c1cc3c(c(=O)n1C2)COC(=O)[C@]3(O)CC` [CPT-11, Irinotecan hydrochloride, reference compound], the IC50 in [1] was 35 µM; in data set [2] it was 16.5 µM; in [3], 7.38 µM; in data set [4] it was 14.1 µM; in data set [5], 11.7 µM; in data set [6], 25 µM. For the same molecule, the IC50 in [7] was 12 µM; in data set [8], 9.15 µM; in [9], 29.1 µM; in data set [12], 10.7 µM; in [13] it was 12.8 µM; in data set [14], 22 µM. Further, the IC50 in data set [15] is 20.3 µM; in data set [16], 22.1 µM; in data set [17], 25.1 µM; in data set [18], 14.4 µM. The solubility in data set [10] (0.1% aqueous solution of Tween-80, aqueous with cosolvent or surfactant or cyclodextrin, read-out: Solubility in 0.1% Tween-80) turned out to be 597 µg/mL; in data set [10] (aqueous buffer, PBS pH 7.4, read-out: Solubility in PBS (pH = 7.4)), 843 µg/mL; in [10] (normal saline, saline or isotonic, read-out: Solubility in Normal Saline (NS)), 1220 µg/mL; in data set [10] (water, read-out: Solubility in Water), 6300 µg/mL. The “Mouse Weight” value in data set [11] (day 0) came out at 16.53 g; in [11] (day 3), 15.87 g; in data set [11] (day 6), 16.10 g; in data set [11] (day 9), 16.96 g; in data set [11] (day 12), 16.53 g; in data set [11] (day 15), 16.86 g. Moreover, the “Mouse Weight” value in data set [11] (day 18) is 16.27 g; in data set [11] (day 21) it was 17.28 g.

Turning to `CCc1c2c(nc3ccc(O)cc13)-c1cc3c(c(=O)n1C2)COC(=O)[C@]3(O)CC` [SN38, reference compound], the “solubility (in words)” value in [19] was “almost insoluble in common drug solvents and water”. Further, the “Solubility in 0.1% Tween-80” value in data set [10] (0.1% aqueous solution of Tween-80) came out at 77.4 µg/mL (≈ 197 µM). In addition, the “Solubility in PBS (pH = 7.4)” value in data set [10] (PBS pH 7.4) amounted to 17.6 μg/mL. The “Solubility in Normal Saline (NS)” value in [10] (normal saline) came out at 7.5 µg/mL (≈ 19.1 µM). In [10] (summary of Table 1), the “solubility in water, normal saline, PBS (PH 7.4) and 0.1% aqueous solution of Tween-80 (in words)” value was “very low solubility”. In addition, the “Solubility in Water” value in data set [10] (water) amounted to 7.7 µg/mL (≈ 19.6 µM). Moreover, the “in vitro antitumor activity relative to irinotecan” value in data set [20] is 100-1000 times.
